Test results: patent US10202379B2, “Substituted polycyclic carbamoyl pyridone derivative prodrug” (priority 2010, dated 2019)
Where two headings read alike, the source gives them in different places.

Experiments:
[1] = molecular target: Cap-dependant Endonuclease (CEN) (RNP fraction, PB1-PB2-PA complex) (Influenza A virus (strain A/Wilson-Smith/1933 H1N1) (Influenza A virus (strain A/WS/1933 H1N1)), UniProt P15659); assay type: biochemical, influenza A/WSN/33 virus
[2] = system: influenza virus; assay: microbe, parasite or virus in culture; assay type: cell-based; details: MDBK or MDCK cells, 3 days, WST-8
[3] = parent compounds (Reference examples), room temperature, 60 minutes
[4] = unidentified influenza virus, 72 h, read-out: CPE EC50, parent compounds (Reference examples)

Row | Compound | IC50 [1, 3] [nM] | EC50 [2, 4] [nM] | IC50 [1] [nM] | EC50 ([2]; parent compounds (Reference examples), read-out: CPE EC50) [nM]
1 | CCN(CC)CCN1CN(C2c3ccccc3CCc3ccccc32)n2ccc(=O)c(O)c2C1=O [Reference example 490] | 212 | 468 |  | 
2 | COCCC(=O)Oc1c2n(ccc1=O)N([C@@H]1c3ccccc3SCc3c(Cl)cccc31)CN([C@H](C)C(F)(F)F)C2=O [Example 108] |  |  | 37 | 19
3 | C[C@@H](N1CN([C@@H]2c3ccccc3SCc3c2ccc(F)c3F)n2ccc(=O)c(O)c2C1=O)C(F)(F)F [compound 711] |  | 4.28 | 5.57 | 
4 | COC[C@H](C)N1C(=O)c2c(O)c(=O)ccn2N(C2c3ccccc3CCc3ccccc32)C1CCN(C)C (stereo partly drawn) [Reference example 644] |  | 60 | 238 | 
5 | C[C@@H](N1CN([C@H]2c3ccccc3CCc3c(F)cccc32)n2ccc(=O)c(O)c2C1=O)C(F)(F)F [Reference example 628] | 43 | 13 |  | 
6 | COC(=O)c1cn2c(c(O)c1=O)C(=O)N1CCCCN1C2C(c1ccccc1)c1ccccc1 (stereo not drawn) [Reference example 506] | 247 | 1620 |  | 
7 | C[C@@H](N1CN([C@@H]2c3cccc(F)c3SCc3cccc(F)c32)n2ccc(=O)c(O)c2C1=O)C(F)(F)F [Reference example 599] | 25 | 8 |  | 
8 | C[C@@H](N1CN([C@@H]2c3ccccc3CCc3c(Cl)cccc32)n2ccc(=O)c(O)c2C1=O)C(F)(F)F [Reference example 641] | 46 | 23 |  | 
9 | C[C@@H](N1CN([C@H]2c3cc(F)c(F)cc3CSc3ccccc32)n2ccc(=O)c(O)c2C1=O)C(F)(F)F [compound 668] |  | 3.84 | 12.6 | 
10 | C[C@@H](N1CN([C@@H]2c3ccc(F)cc3SCc3cccc(F)c32)n2ccc(=O)c(O)c2C1=O)C(F)(F)F [Reference example 598] | 16 | 5 |  | 
11 | C[C@@H](N1CN(C(c2ccc(F)cc2)c2ccc(F)cc2)n2ccc(=O)c(O)c2C1=O)C(F)(F)F [Reference example 649] | 182 | 51 |  | 
12 | Cc1cccc2c1[C@@H](N1CN([C@H](C)C(F)(F)F)C(=O)c3c(O)c(=O)ccn31)c1ccccc1SC2 [Reference example 662] | 316 | 22 |  | 
13 | CC(O)c1cn2c(c(O)c1=O)C(=O)N([C@H](C)C(F)(F)F)CN2[C@@H]1c2ccccc2SCc2cccc(Cl)c21 (stereo partly drawn) [compound 710] |  | 9.81 | 20.6 | 
14 | C[C@@H](N1CN(C2c3cccc(F)c3CCc3c(F)cccc32)n2ccc(=O)c(O)c2C1=O)C(F)(F)F [Reference example 638] | 130 | 21 |  | 
15 | C[C@@H](N1CN([C@@H]2c3ccccc3SCc3c2ccc(F)c3F)n2cc(B(O)O)c(=O)c(O)c2C1=O)C(F)(F)F [compound 709] | 34.3 | 7.09 |  | 
16 | COc1cccc2c1[C@H](N1CN([C@H](C)C(F)(F)F)C(=O)c3c(O)c(=O)ccn31)c1ccccc1SC2 [compound 728] | 74.7 | 4.32 |  | 
17 | COCC[C@@H]1N([C@H](C)C(F)(F)F)C(=O)c2c(O)c(=O)ccn2N1C1c2ccccc2CCc2ccccc21 [Reference example 645] | 105 | 16 |  | 
18 | O=C1c2c(O)c(=O)ccn2N(C2c3ccccc3CCc3ccccc32)CN1C1COC1 [Reference example 629] | 89 | 64 |  | 
19 | C[C@@H](N1CN([C@@H]2c3ccccc3CCc3c(F)cccc32)n2ccc(=O)c(O)c2C1=O)C(F)(F)F [Reference example 634] | 103 | 17 |  | 
20 | C[C@@H](N1CN([C@@H]2c3ccccc3SCc3cccc(C(F)(F)F)c32)n2ccc(=O)c(O)c2C1=O)C(F)(F)F [compound 741] | 21 | 3.51 |  | 

Row | Compound | IC50 [1, 3] [nM] | EC50 [2, 4] [nM] | IC50 [1] [nM] | EC50 ([2]; parent compounds (Reference examples), read-out: CPE EC50) [nM]
21 | C[C@@H](N1CN([C@@H](c2ccccc2)c2ccccc2Cl)n2ccc(=O)c(O)c2C1=O)C(F)(F)F [Reference example 651] | 56 | 13 |  | 
22 | C[C@@H](CO)N1CN(C2c3ccccc3CSc3ccccc32)n2ccc(=O)c(O)c2C1=O (stereo partly drawn) [Reference example 375] | 37 | 73 |  | 
23 | N#CCN1CN(C(c2ccccc2)c2ccccc2)n2ccc(=O)c(O)c2C1=O [Reference example 574] | 165 | 442 |  | 
24 | C[C@@H](N1CN([C@@H]2c3ccccc3SCc3cccc(C4CC4)c32)n2ccc(=O)c(O)c2C1=O)C(F)(F)F [compound 691] | 3.67 | 4.05 |  | 
25 | C[C@@H](N1CN([C@H]2c3ccccc3CSc3ccccc32)n2cc(CO)c(=O)c(O)c2C1=O)C(F)(F)F [compound 712] | 16.4 | 6.45 |  | 
26 | C[C@@H](N1CN([C@@H]2c3ccc(Cl)cc3SCc3c(F)cccc32)n2ccc(=O)c(O)c2C1=O)C(F)(F)F [Reference example 663] | 31 | 18 |  | 
27 | C[C@@H](N1CN(C(c2ccccc2)c2ccc(Cl)cc2)n2ccc(=O)c(O)c2C1=O)C(F)(F)F (stereo partly drawn) [Reference example 650] | 219 | 103 |  | 
28 | C[C@@H](N1CN([C@H](c2ccccc2)c2ccccc2Cl)n2ccc(=O)c(O)c2C1=O)C(F)(F)F [Reference example 652] | 330 | 79 |  | 
29 | C[C@@H](N1CN(C2c3ccccc3CCc3cccc(Cl)c32)n2ccc(=O)c(O)c2C1=O)C(F)(F)F (stereo partly drawn) [compound 686] | 15.1 | 7.86 |  | 
30 | COCCCC1N(CC(F)(F)F)C(=O)c2c(O)c(=O)ccn2N1C1c2ccccc2CCc2ccccc21 (stereo not drawn) [Reference example 642] |  | 94 | 256 | 
31 | C[C@@H](N1CN([C@@H]2c3cccc(Cl)c3SCc3cccc(F)c32)n2ccc(=O)c(O)c2C1=O)C(F)(F)F [Reference example 601] | 25 | 8 |  | 
32 | Cc1cccc2c1SCc1cccc(Cl)c1[C@@H]2N1CN([C@H](C)C(F)(F)F)C(=O)c2c(O)c(=O)ccn21 [compound 768] | 15.3 | 3.64 |  | 
33 | C[C@@H](N1CN([C@H]2c3ccc(F)cc3CSc3c(Cl)cccc32)n2ccc(=O)c(O)c2C1=O)C(F)(F)F [Reference example 602] | 5 | 4 |  | 
34 | C[C@@H](N1CN([C@H]2c3ccc(F)cc3CSc3ccccc32)n2cc(B(O)O)c(=O)c(O)c2C1=O)C(F)(F)F [compound 708] | 46.5 | 8.49 |  | 
35 | C[C@@H](N1CN([C@@H]2c3ccccc3SCc3cccc(N(C)C)c32)n2ccc(=O)c(O)c2C1=O)C(F)(F)F [compound 752] | 14.2 | 3.12 |  | 
36 | Cc1cccc2c1[C@H](N1CN([C@H](C)C(F)(F)F)C(=O)c3c(O)c(=O)ccn31)c1ccccc1SC2 [Reference example 665] | 18 | 5 |  | 
37 | Cc1cccc2c1CSc1c(C)cccc1[C@H]2N1CN([C@H](C)C(F)(F)F)C(=O)c2c(O)c(=O)ccn21 [Reference example 613] |  | 18 | 173 | 
38 | C[C@@H](N1CN([C@H]2c3ccc(F)cc3CSc3c(Br)cccc32)n2ccc(=O)c(O)c2C1=O)C(F)(F)F [Reference example 619] | 5 | 6 |  | 
39 | C[C@@H](N1CN([C@H]2c3cccc(F)c3SCc3cccc(Cl)c32)n2ccc(=O)c(O)c2C1=O)C(F)(F)F [Reference example 622] |  | 12 | 89 | 
